Patent publication US20040266791A1 (priority 2003, published 2004)
Where a name gives a salt, the structure may show the parent alone.

How the values were obtained:
[1] = Hygroscopicity test / water content by Karl Fischer titration; type: physicochemical; conditions: for Water content in % at 2 weeks, 40/75: 40° C./75% relative humidity; for Water content in % at 2 weeks, normal: normal conditions (open air); for Water content in % at t = 0: before storage, Karl Fischer; for water content: isolated dried product of the example
Method: The salts were subjected to storage at normal conditions (open air) and at 40° C./75% relative humidity. Water content was determined by Karl Fischer titration.

[2] = 1 mg/ml aqueous solution, 2% sorbitol, 0.2% benzoic acid, stress temperatures up to 80° C.
Method: Dissolve the benzoic acid in 60% of the water (heat if necessary to 90° C., allow to cool afterwards). […] The sorbitol is dissolved in the remaining water (40%). Combine both solutions and make up the volume with water.

[3] = in water at 20° C., calculated on free base
Method: The dissolution of the solid can take a period of time until an equilibrium/steady state between the solid and liquid phases is reached. […] This value is taken as the solubility determination.
Then, 2 ml of the suspension was filtered over a micropore filter. Finally, 1.0 ml of the filtrate was freeze-dried, followed by weight determination of the residue. The maximum amount of the salt dissolved (recalculated to the base), was calculated from this weight determination.

[4] = cited from earlier work

Row | Compound | Water content in % at 2 weeks, 40/75 [1] [%] | Water content in % at 2 weeks, normal [1] [%] | Water content in % at t = 0 [1] [%] | solubility (calc. on free base) [3] [mg/mL] | also measured
1 | Cc1nc2n(c(=O)c1CCN1CCC(c3noc4cc(F)ccc34)CC1)CCCC2 [Risperidone dihydrochloride] | 0.15 | 0.15 | 0.13 | – | water content after exposure to air under ambient conditions for 3 weeks ([1]; 3 weeks, air, ambient conditions): 3 weeks: 0.30%; absorbed or adsorbed water ([1]; absence of drying, or standing at ambient temperature in open air): less than 0.5%; hygroscopicity ([1]; standing at ambient temperature in open air): not hygroscopic; stability of solution [2]: surprisingly stable
2 | Risperidone hemitartrate | 0.59 | 0.56 | 0.28 | 40 | water content [1]: Water content: 0.28%
3 | Risperidone acetate monohydrate | 3.66 | 3.39 | 3.78 | 72 | –
4 | Cc1nc2n(c(=O)c1CCN1CCC(c3noc4cc(F)ccc34)CC1)CCCC2.O=C(O)C=CC(=O)O [Risperidone hydrogenmaleate] | 0.07 | 0.09 | 0.09 | – | water content [1]: water content: <0.1%; stability of solution [2]: surprisingly stable
5 | Risperidone besylate | – | – | – | 6.5 | –
6 | Risperidone mesylate | – | – | 0.41 | >160 | Water content in % at 2 weeks, 40/75 ([1]; listed as Mesylate): 8.51%; Water content in % at 2 weeks, 40/75 ([1]; listed as risperidone mesylate): 2 weeks: 8.51%; Water content in % at 2 weeks, normal ([1]; listed as Mesylate): 1.38%; Water content in % at 2 weeks, normal ([1]; listed as risperidone mesylate): for 2 weeks: 1.38%; water content [1]: water content: 0.41%
7 | risperidone tartrate | – | – | – | – | room temperature solubility ([4]; reported in U.S. Pat. No. 5,616,587): about 80 mg/ml
8 | Risperidone (L)hemimalate | 1.09 | 0.95 | 0.89 | >300 | stability of solution [2]: surprisingly stable
9 | Risperidone tosylate | – | – | – | 2 | –
10 | Risperidone Hemifumarate | – | – | – | 3 | –
11 | Cc1nc2n(c(=O)c1CCN1CCC(c3noc4cc(F)ccc34)CC1)CCCC2 [Risperidone base, 3-[2-[4-(6-Fluoro-1,2-benzisoxazol-3-yl)-1-piperidinyl]-ethyl]-6,7,8,9-tetrahydro-2-methyl-4-H-pyrido[1,2-a]-pyrimidin-4-one] | – | – | – | – | solubility in water ([4]; background statement, no source given): approximately 4 mg/ml
